Structures can show the parent of a compound that is named as a salt.
B1: IMP321: recombinant soluble human LAG-3Ig fusion protein, 200-kDa dimer: extracellular domain of hLAG-3 fused to human IgG1 Fc (protein)
chain: LQPGAEVPVVWAQEGAPAQLPCSPTIPLQDLSLLRRAGVTWQHQPDSGPPAAAPGHPLAPGPHPAAPSSWGPRPRRYTVLSVGPGGLRSGRLPLQPRVQLDERGRQRGDFSLWLRPARRADAGEYRAAVHLRDRALSCRLRLRLGQASMTASPPGSLRASDWVILNCSFSRPDRPASVHWFRNRGQGRVPVRESPHHHLAESFLFLPQVSPMDSGPWGCILTYRDGFNVSIMYNLTVLGLEPPTPLTVYAGAGSRVGLPCRLPAGVGTRSFLTAKWTPPGGGPDLLVTGDNGDFTLRLEDVSQAQAGTYTCHIHLQEQQLNATVTLAIITVTPKSFGSPGSLGKLLCEVTPVSGQERFVWSSLDTPSQRSFSGPWLEAQEAQLLSQPWQCQLYQGERLLGAAVYFTELSSPG
modifications: left off: small tags and cut ends; a dimerising Fc or GST
notes: recombinant soluble human LAG-3Ig fusion protein, 200-kDa dimer: extracellular domain of hLAG-3 fused to human IgG1 Fc

Tests used:
[1] = tested on: lymphoma cell line EL4; assay: Murine syngeneic skin tumour model, EL4, carboplatin and oxaliplatin (Example 3); type: in vivo; details: EL4 s.c. in C57Bl/6 mice; IMP321 50 μg s.c. D7-D25; Carboplatin 16 mg/kg i.p. D6, D10, D13, D17; Oxaliplatin 3 mg/kg i.p. D6, D10; FIG. 3A/3B
Method: (§1) A murine syngeneic skin tumour model was established using the lymphoma cell line EL4.
The minimum tumorigenic dose (MTD) of tumour cells (5×10^5 cells) was implanted by s.c. injection in the right flank of C57Bl/6 mice (5 weeks old) at Day 0. The mice were injected with phosphate buffered saline (PBS) (Group 1 mice), IMP321 (Group 2 mice), IMP321 and Carboplatin (Group 3 mice), Carboplatin alone (Group 4 mice), IMP321 and Oxaliplatin (Group 5 mice), or Oxaliplatin alone (Group 6 mice) according to the following schedule: • Group 1 (10 mice): negative control: PBS s.c. injection at D7, D11, D14, D18, D21 and D25; • Group 2 (10 mice): IMP321 s.c. injection (50 μg, 1.9 mg/m) at D7, D11, D14, D18, D21 and D25; • Group 3 (9 mice): IMP321 s.c. injection (50 μg, 1.9 mg/ml) at D7, D11, D14, D18, D21 and D25, plus Carboplatin i.p. injection (288 μg, 16 mg/kg) at D6, D10, D13 and D17; • Group 4 (10 mice): Carboplatin i.p. injection (288 μg, 16 mg/kg) at D6, D10, D13 and D17; • Group 5 (10 mice): IMP321 s.c. injection (50 μg, 1.9 mg/m) at D7, D11, D14, D18, D21 and D25, plus Oxaliplatin i.p. injection (54 μg, 3 mg/kg) at D6 and D10; • Group 6 (10 mice): Oxaliplatin i.p. injection (54 μg, 3 mg/kg) at D6 and D10.
Tumour growth was monitored twice a week by measuring two perpendicular tumor diameters using calipers. […] Tumour size means the cross-sectional area in mm^2.

[2] = tested on: lymphoma cell line EL4; assay: Murine syngeneic skin tumour model, EL4 (Example 2); type: in vivo; details: EL4 s.c. in C57Bl/6 mice; IMP321 50 μg s.c. D7-D24; Carboplatin 16 mg/kg i.p. D6, D10, D13, D17; FIG. 2
Method: as §1
The minimum tumorigenic dose (MTD) of tumour cells (5×10^5 cells) was implanted by s.c. injection in the right flank of C57Bl/6 mice (5 weeks old) at Day 0. The mice were injected with phosphate buffered saline (PBS) (Group 1 mice), IMP321 (Group 2 mice), IMP321 and Carboplatin (Group 3 mice), or Carboplatin alone (Group 4 mice) according to the following schedule: • Group 1 (8 mice): negative control: PBS s.c. injection at D7, D11, D14, D19, D21 and D24; • Group 2 (8 mice): IMP321 s.c. injection (50 μg, 3.96 mg/ml) at D7, D11, D14, D19, D21 and D24; • Group 3 (8 mice): IMP321 s.c. injection (50 μg, 3.96 mg/m) at D7, D11, D14, D19, D21 and D24, plus Carboplatin i.p. injection (288 μg, 16 mg/kg) at D6, D10, D13 and D17; • Group 4 (8 mice): Carboplatin i.p. injection (288 μg, 16 mg/kg) at D6, D10, D13 and D17.
Tumour growth was monitored twice a week by measuring two perpendicular tumor diameters using calipers. Tumour size means the cross-sectional area in mm^2.

[3] = tested on: colorectal adenocarcinoma cell line CT26; assay: Murine syngeneic skin tumour model, CT26 (Example 1); type: in vivo; details: CT26 s.c. in BALB/c mice; IMP321 50 μg s.c. D11-D28; Topotecan 2.5 mg/kg i.p. D10, D13, D17; FIG. 1
Method: A murine syngeneic skin tumour model was established using the colorectal adenocarcinoma cell line CT26.
One quarter of the minimum tumorigenic dose (MTD) of tumour cells (0.5×10^5 cells) was implanted by subcutaneous (s.c.) injection in the right flank of four groups of BALB/c mice (5 weeks old) at Day 0. The mice were injected with phosphate buffered saline (PBS) (Group 1 mice), the LAG-3 derivative IMP321 (Group 2 mice), IMP321 and Topotecan (Group 3 mice), or Topotecan alone (Group 4 mice) according to the following schedule: • Group 1 (8 mice): negative control: PBS s.c. injection at D11, D14, D18, D21, D25 and D28; • Group 2 (7 mice): IMP321 s.c. injection (50 μg, 1.9 mg/ml) at D11, D14, D18, D21, D25 and D28; • Group 3 (8 mice): IMP321 s.c. injection (50 μg, 1.9 mg/ml) at D11, D14, D18, D21, D25 and D28, plus Topotecan i.p. injection (45 μg, 2.5 mg/kg) at D10, D13 and D17; • Group 4 (8 mice): Topotecan i.p. injection (45 μg, 2.5 mg/kg) at D10, D13 and D17.
Tumour growth was monitored twice a week by measuring two perpendicular tumour diameters using calipers. Tumour size means the cross-sectional area in mm^2.

[4] = tested on: Mouse colon 38 (C38) tumor fragments; assay: C38 colon adenocarcinoma tumor model (Example 4); details: C38 fragments s.c. in C57BL/6 mice; oxaliplatin 5 mg/kg IV Q7Dx4; IMP321 20 μg SC Q7Dx4, day after oxaliplatin; FIG. 4A
Method: The effect of combined treatment with the LAG-3 derivative IMP321 (also referred to as hLAG-3Ig) and oxaliplatin in the C38 colon adenocarcinoma tumor model was evaluated. In this model, tumor fragments are surgically implanted subcutaneously.
Mouse colon 38 (C38) tumor fragments were obtained frozen from the Division of Cancer Treatment, Tumor Repository, NCI (Frederick, MD, USA). The C38 fragments were stored frozen in DMSO/SVF/RPMI 1640 medium (10/10/80) in liquid nitrogen until use. The fragments were thawed at 37° C. for 5 min, rinsed twice in RPMI 1640 medium before subcutaneous (SC) implantation in mice. The C38 tumors were serially transplanted in C57Bl/6 mice.
Small C38 tumor fragments (20-30 mg) were subcutaneously implanted in the right flank of 12 C57BL/6 mice. When tumor sizes reached 500-1000 mm^3, tumors were surgically excised and small C38 tumor fragments (20-30 mg) were subcutaneously implanted in the right flank of recipient C57BL/6 mice.
Treatment started when the tumors reached a mean volume of 200-300 mm^3. […]

Molecule | effect on tumour growth (tumour size, cross-sectional area) [1] | effect on tumour growth (tumour size, cross-sectional area) [2] | effect on tumour growth (tumour size, cross-sectional area) [3] | effect on delaying tumor growth [4]
[NH2][Pt]1([NH2])[O]C(=O)C2(CCC2)C(=O)[O]1 [carboplatin, cis-diammine(cyclobutane-1,1-dicarboxylate-O,O′)platinum(I)] | some effect | very little effect, if any | – | –
CC[C@@]1(O)C(=O)OCc2c1cc1n(c2=O)Cc2cc3c(CN(C)C)c(O)ccc3nc2-1 [topotecan, (S)-10-[(dimethylamino)methy]-4-ethyl-4,9-dihydroxy-1H-pyrano[3′,4′:6,7]indolizino[1,2-b] quinoline-3,14(4H,12H)-dione monohydrochloride] | – | – | some effect on reducing tumor growth | –
O=C1[O][Pt]2([NH][C@@H]3CCCC[C@H]3[NH]2)[O]C1=O [Oxaliplatin, [(1R,2R)-cyclohexane-1,2-diamine](ethanedioato-O,O′)platinum(II)] | had an effect | – | – | a slight effect
B1 | little, if any effect | no effect on tumour growth | no effect on tumour growth | no effect on delaying tumor growth

From patent publication US12214012B2, “Combined preparations for the treatment of cancer” (IMMUTEP S.A.S., priority 2013, dated 2025)
